# Laboratory results as given in US20260158050A1, “USE OF EIDD-1931 OR DERIVATIVE THEREOF IN TREATMENT OF ENTEROVIRUS INFECTION” (ACADEMY OF MILITARY MEDICAL SCIENCES, priority 2022, published 2026).
# Assays:
# [1] = system: CV-A16 190-D1; assay: CPE protection, CV-A16 190-D1 strain; type: cell-based; details: for EC50: CV-A16 190-D1, RD cells
# [2] = system: RD cells; assay: cytotoxicity test on RD cells; type: cell-based, Human; details: 3 days
# Description: (§1) Human liver tumor cells (Huh7 cells) used in the experiment were purchased from Chinese National Infrastructure of Cell Line Resource. Human […] cells (RD cells) and African green monkey kidney cells (Vero cells) were purchased from ATCC (Cat. No.: CCL-136 and CCL-81, respectively). The above cells were cultured in a cell culture incubator at 37° C. and 5% CO2. The complete culture medium used for cell growth was DMEM high-glucose culture medium (purchased from Gibco, Cat. […] No.: 16000044) and penicillin-streptomycin (purchased from Gibco, Cat. No.: 2321152). The maintenance culture medium used for cell culture was DMEM high-glucose culture medium supplemented with 2% FBS and penicillin-streptomycin. H strain of EV-A71 was purchased from ATCC (Cat. No.: VR-1432). […] The microplate reader, model Spectra Max M5, was purchased from Molecular Devices. […] Finally, the luminescence value of each well was measured using the microplate reader. The inhibition rate of the test compounds at each dilution was calculated as follows: [formula] […] The half-cytotoxic concentrations (CC50) of the test compounds were calculated using the same method, and the select index (SI) was calculated based on EC50 and CC50: SI=CC50/EC50.
# [3] = system: EV-A71; assay: EV-A71 viral load in ICR suckling mice tissues (qRT-PCR); type: in vivo; details: 200 mg/kg intraperitoneally once per day, 4th day (FIG. 7)
# [4] = system: Vero cells; assay: cytotoxicity test on Vero cells; type: cell-based, African green monkey; details: 3 days
# Description: as §1
# [5] = system: EV-A71 H strain; assay: protection against cytopathic effect (CPE) caused by EV-A71, Cell-Titer Glo; type: cell-based; details: for EC50: EV-A71 H strain, 3 days; for inhibition of the cytopathic effect caused by the virus: multiple cell lines infected with EV-A71 (FIG. 2)
# Description: Human liver tumor cells (Huh7 cells) used in the experiment were purchased from Chinese National Infrastructure of Cell Line Resource. Human […] cells (RD cells) and African green monkey kidney cells (Vero cells) were purchased from ATCC (Cat. No.: CCL-136 and CCL-81, respectively). The above cells were cultured in a cell culture incubator at 37° C. and 5% CO2. The complete culture medium used for cell growth was DMEM high-glucose culture medium (purchased from Gibco, Cat. […] No.: 16000044) and penicillin-streptomycin (purchased from Gibco, Cat. No.: 2321152). The maintenance culture medium used for cell culture was DMEM high-glucose culture medium supplemented with 2% FBS and penicillin-streptomycin. H strain of EV-A71 was purchased from ATCC (Cat. No.: VR-1432). Compounds EIDD-1931 and EIDD-2801 were purchased from Shanghai Topscience Biochemical Technology Co., Ltd. (Cat Nos: […] and […], respectively), and their structures were shown in FIG. 1. Cell-Titer Glo® Luminescent Cell Viability Assay Solution was purchased from Promega (Cat. No.: G7572). The microplate reader, model Spectra Max M5, was purchased from Molecular Devices. Huh7 cells, RD cells, and Vero cells were seeded into a 96-well plate with a white wall and a transparent bottom at a density of about 1.0×10^4 per well and cultured at 37° C. and 5% CO2 for 24 hours. Then, the EV-A71 virus was diluted with cell maintenance solution and added to the 96-well plate to reach a final concentration of 100TCID50. […] After 3 days, the supernatant was discarded, and the diluted Cell-Titer Glo® Luminescent Cell Viability Assay Solution was added. The cells were shaken and lysed for 5 minutes in the dark, and then allowed to stand for 3 minutes. Finally, the luminescence value of each well was measured using the microplate reader. The formula for calculating the inhibition rate of the test compounds against virus was: [formula] Origin9.0 software was used to fit the inhibition rate-concentration S-shaped curve and calculate the half-maximal effective concentrations (EC50) of the test compounds. The half-cytotoxic concentrations (CC50) of the test compounds were calculated using the same method, and the select index (SI) was calculated based on EC50 and CC50: SI=CC50/EC50.
# [6] = system: Huh7 cells; assay: cytotoxicity test on Huh7 cells; type: cell-based, Human; details: 3 days
# Description: as §1
# [7] = system: EV-A71 RNA; assay: inhibition of EV-A71 viral RNA replication (qRT-PCR) in RD cells; type: cell-based; details: 0.1 MOI, 30 hours (FIG. 3 B and D)
# [8] = system: CV-B3 Nancy; assay: CPE protection, CV-B3 Nancy strain; type: cell-based; details: for EC50: CV-B3 Nancy, Vero cells
# [9] = system: EV-A71; assay: protection of 1-day-old ICR suckling mice with lethal EV-A71 infection; type: in vivo; details: for protective effect on ICR suckling mice inoculated with a lethal dose of EV-A71: 200, 66.6, 22.2, 7.41 mg/kg intraperitoneally once per day for 7 days
# Description: 10 litters of 1-day-old ICR offspring female mice were randomly divided into 10 groups, namely, virus control group (2 groups), EIDD-1931 administration group (4 groups), and EIDD-2801 administration group (4 groups). The dosages of EIDD-1931 and EIDD-2801 were 200 mg/kg, 66.6 mg/kg, 22.2 mg/kg, and 7.41 mg/kg, respectively. Each mouse was challenged with 10^6 PFU intraperitoneally, and administrated the drug intraperitoneally 4 hours later. The mice of virus control group were administrated the drug solvent. And then, the drug was administered once per day for 7 consecutive days. The mice were weighed, and the survival and weight changes in the mice were recorded every day.
# Log-Rank was used to calculate the statistical significance of the survival curve. p<0.05 indicated statistical significance.
# [10] = system: EV-D68 STL-2014-12; assay: CPE protection, EV-D68 STL-2014-12 strain; type: cell-based; details: for EC50: EV-D68 STL-2014-12, RD cells
Compound,EC50 [1],CC50 [2],"viral loads in tissues or organs (brain, heart, small intestine, liver, hind limb muscle, lung) [3]",CC50 [4],EC50 ([5]; Huh7 cells),EC50 ([5]; RD cells),EC50 ([5]; Vero cells),SI (CC50/EC50) ([5]; Huh7 cells),SI (CC50/EC50) ([5]; RD cells),SI (CC50/EC50) ([5]; Vero cells),inhibition of the cytopathic effect caused by the virus [5],CC50 [6],inhibition of replication of EV-A71 RNA [7],EC50 [8],time within which the mice died ([9]; 7.41 mg/kg intraperitoneally),protective effect on ICR suckling mice inoculated with a lethal dose of EV-A71 [9],EC50 [10],further results
O=c1nc(NO)ccn1[C@@H]1O[C@H](CO)[C@@H](O)[C@H]1O [EIDD-1931],4.14 ± 0.27 µM,80.47 ± 0.02 µM,significantly reduced,14.1 ± 0.43 µM,4.43 ± 0.33 µM,5.13 ± 0.56 µM,7.04 ± 0.38 µM,7.69,15.69,2.0,dose-dependently inhibit,34.09 ± 0.06 µM,dose-dependently inhibited,3.65 ± 0.82 µM,≤ 12 days,dose-dependent protective effect,9.69 ± 0.04 µM,"survival rate ([9]; 22.2 mg/kg intraperitoneally): 60%; protection from the lethal dose of EV-71 virus ([9]; 66.6 mg/kg intraperitoneally): completely protect; protection from the lethal dose of EV-71 virus ([9]; 200 mg/kg intraperitoneally): completely protect; weight gain of surviving mice ([9]; 200, 66.6 and 22.2 mg/kg): good weight gain"
CC(C)C(=O)OC[C@H]1O[C@@H](n2cc/c(=N\O)[nH]c2=O)[C@H](O)[C@@H]1O [EIDD-2801],44.9 ± 4.23 µM,> 100 µM,significantly reduced,> 100 µM,35.6 ± 0.47 µM,70.1 ± 4.4 µM,88.5 ± 3.18 µM,> 2.81,> 1.43,> 1.13,dose-dependently inhibit,> 100 µM,dose-dependently inhibited,87.2 ± 10.8 µM,≤ 13 days,dose-dependent protective effect,86.2 ± 9.17 µM,inhibitory activity against CV-A16 [1]: low inhibitory activity; inhibitory activity against CV-B3 [8]: low inhibitory activity; time within which the mice died ([9]; 22.2 mg/kg intraperitoneally): ≤ 13 days; survival rate ([9]; 66.6 mg/kg intraperitoneally): 67%; survival rate ([9]; 200 mg/kg intraperitoneally): 100%; inhibitory activity against EV-V68 [10]: low inhibitory activity
